Values quoted from earlier work as cited in patent US20080015223A1, “Pyrazole Derivatives as Modulators of the 5-Ht2a Serotonin Receptor Useful for the Treatment of Disorders Related Thereto” (Arena Pharmaceuticals, Inc., priority 2004, published 2008).

What was measured:
rats [1] = tested on: rats
[2] = tested on: spontaneously hypertensive rats
[3] = 24 months of treatment, patients
rats [4] = tested on: rats; remark: listed apart in the source
[5] = glaucoma patients
[6] = humans, lumbar disc herniation

CN1CCN2c3ccccc3Cc3ccccc3C2C1 (stereo not drawn) [Mainserin]
DOCA-salt induced hypertension (rats [1]): prevent

O=C(c1ccc(F)cc1)C1CCN(CCn2c(=O)[nH]c3ccccc3c2=O)CC1 [ketanserin]
blood pressure [2]: stabilize | JC virus infection of human glial cells (JC virus): inhibited

Cc1nc2sccn2c(=O)c1CCN1CCC(=C(c2ccc(F)cc2)c2ccc(F)cc2)CC1 [ritanserin]
JC virus infection of human glial cells (JC virus): inhibited

COc1cccc(CCc2ccccc2OCC(CN(C)C)OC(=O)CCC(=O)O)c1 (stereo not drawn) [sarpogrelate]
urinary albumin excretion level [3]: significantly reduced | analgesic effect on thermal induced pain (rats [4]; intraperitoneal administration): significant analgesic effect | analgesic effect on inflammatory pain (rats [4]; intrathecal or intraperitoneal administration): significant analgesic effect | IOP [5]: significantly lower | treatment for lower back pain, leg pain and numbness associated with sciatica [6]: effective treatment
